Data: patent US7259186B2, “Salts of fenofibric acid and pharmaceutical formulations thereof” (Abbott Laboratories, priority 2002, dated 2007)
Structures can show the parent of a compound that is named as a salt.

Test: Solid state photostability (ICH light exposure, HPLC recovery)
Assay type: physicochemical
Conditions: light 300–800 nm under ICH Guideline conditions; lack of degradation = recovery of 95% or greater
Description: The terms “photostability” and “photostable” are used interchangeably herein and refer to a lack of degradation induced by exposure to light from 300–800 nm under the conditions described in the “Guideline for the Photostability Testing of New Drug Substances and Products” (International Conference on Harmonization. Federal Register 1997; […]:27115–22, which is herein incorporated by reference) (hereinafter referred to as the “Guidelines”). As used herein, the term of “lack of degradation” means a recovery of 95% or greater on average, preferably a recovery of 97% or greater on average and most preferably, a recovery of 99% or greater on average of the novel salts of the present invention after exposure to light from 300–800 nm under the conditions described in the Guidelines described above and pursuant to the assay described in Example 28.
About 1–4 mg of each of fenofibric acid form I, fenofibric acid form II, choline, diethanolamine, tromethamine, sodium, calcium, ethanolamine, meglumine, L-lysine, and piperazine was weighed into separate 4 mL clear glass vials. […]
The vials were sealed with PTFE lined caps, and divided into 2 groups with at least three replicates in each group. […] At the end of the light exposure, all samples and controls were removed and analyzed by HPLC using the conditions shown below in Table 6. […]

Row | Compound | photostability (in words)
1 | CC(C)(Oc1ccc(C(=O)c2ccc(Cl)cc2)cc1)C(=O)O [Meglumine salt, reference compound] | not photostable
2 | CC(C)(Oc1ccc(C(=O)c2ccc(Cl)cc2)cc1)C(=O)O [L-Lysine salt, reference compound] | not photostable
